Assay results published in patent US7691867B2, “Chemical compounds” (AstraZeneca AB, priority 2003, dated 2010).

Experiments:
Aurora-B kinase = Aurora-B kinase (Homo sapiens, UniProt Q96GD4); experiment: In vitro Aurora-B kinase inhibition test; assay type: biochemical; conditions: recombinant Aurora-B, peptide substrate, [γ33P]ATP, 60 minutes at room temperature; read-out: 50% inhibition of enzyme activity at a concentration of
Procedure: (b) In Vitro Aurora-B Kinase Inhibition Test
This assay determines the ability of a test compound to inhibit serine-threonine kinase activity. DNA encoding Aurora-B may be obtained by total gene synthesis or by cloning. This DNA may then be expressed in a suitable expression system to obtain polypeptide with serine-threonine kinase activity.
For the large scale expression of Aurora-B kinase activity, Sf21 insect cells were grown at 28° C. in TC100 medium supplemented with 10% foetal calf serum (Viralex) and 0.2% F68 Pluronic (Sigma) on a Wheaton roller rig at 3 r.p.m. When the cell density reached 1.2×10^6 cells ml^−1 they were infected with plaque-pure Aurora-B recombinant virus at a multiplicity of infection of 1 and harvested 48 hours later. All subsequent purification steps were performed at 4° C. Frozen insect cell pellets containing a total of 2.0×10^8 cells were thawed and diluted with lysis buffer (50 mM HEPES (N-[2-hydroxyethyl]piperazine-N′-[2-ethanesulphonic acid]) pH 7.5 at 4° C., 1 mM Na3VO4, 1 mM PMSF (phenylmethylsulphonyl fluoride), 1 mM dithiothreitol, 1 μg/ml aprotinin, 1 μg/ml pepstatin, 1 μg/ml leupeptin), using 1.0 ml per 2×10^7 cells. Lysis was achieved using a sonication homogeniser, following which the lysate was centrifuged at 41,000 g for 35 minutes. Aspirated supernatant was pumped onto a 5 mm diameter chromatography column containing 1.0 ml CM sepharose Fast Flow (Amersham Pharmacia Biotech) which had been equilibrated in lysis buffer. A baseline level of UV absorbance for the eluent was reached after washing the column with 12 ml of lysis buffer followed by 7 ml of wash buffer (50 mM HEPES pH 7.4 at 4° C., 1 mM dithiothreitol). Bound Aurora-B B protein was eluted from the column using a gradient of elution buffer (50 mM HEPES pH 7.4 at 4° C., 0.6 M NaCl, 1 mM dithiothreitol, running from 0% elution buffer to 100% elution buffer over 15 minutes at a flowrate of 0.5 ml/min). Elution fractions (1.0 ml) corresponding to the peak in UV absorbance was collected. […]

SW620 cells = experiment: In vitro cell cycle analysis assay; assay type: cell-based; conditions: Homo sapiens, SW-620, 24 hours with compound, DNA content by FACS, read-out: 50% inhibition of enzyme activity at a concentration of
Procedure: (d) In Vitro Cell Cycle Analysis Assay
This assay determines the ability of a test compound to arrest cells in specific phases of the cell cycle. Many different mammalian cell lines could be used in this assay and SW620 cells are included here as an example. SW620 cells were seeded at 7×10^5 cells per T25 flask (Costar) in 5 ml L-15 (5% FCS, 1% L-glutamine). Flasks were then incubated overnight in a humidified 37° C. incubator with 5% CO2. The following day, 5 μl of L-15 (5% FCS, 1% L-glutamine) carrying the appropriate concentration of test compound solubilised in DMSO was added to the flask. A no compound control treatment was also included (0.5% DMSO). The cells were then incubated for a defined time (24 hours) with compound. After this time the media was aspirated from the cells and they were washed with 5 ml of prewarmed (37° C.) sterile PBSA, then detached from the flask by brief incubation with trypsin and followed by resuspension in 5 ml of 1% Bovine Serum Albumin (BSA, Sigma-Aldrich Co.) in sterile PBSA. The samples were then centrifuged at 2200 rpm for 10 min. The supernatant was aspirated to leave 200 μl of the PBS/BSA solution. The pellet was resuspended in this 200 μl of solution by pipetting 10 times to create a single cell suspension. One ml of ice-cold 80% ethanol was slowly added to each cell suspension and the samples stored at −20° C. overnight or until required for staining. […]
Each sample was then syringed 10 times using 21-guage needle. The samples were then transferred to LPS tubes and DNA content per cell analysed by Fluorescence activated cell sorting (FACS) using a FACScan flow cytometer (Becton Dickinson). Typically 30,000 events were counted and recorded using CellQuest v1.1 software (Verity Software). Cell cycle distribution of the population was calculated using Modfit software (Verity Software) and expressed as percentage of cells with 2N (G0/G1), 2N4N (S phase) and with 4N (G2/M) DNA content.

Aurora-A kinase = biological target: T1, Aurora-A kinase (Homo sapiens, UniProt O14965); experiment: In vitro Aurora-A kinase inhibition test; assay type: biochemical
T1 sequence (O14965 1-403): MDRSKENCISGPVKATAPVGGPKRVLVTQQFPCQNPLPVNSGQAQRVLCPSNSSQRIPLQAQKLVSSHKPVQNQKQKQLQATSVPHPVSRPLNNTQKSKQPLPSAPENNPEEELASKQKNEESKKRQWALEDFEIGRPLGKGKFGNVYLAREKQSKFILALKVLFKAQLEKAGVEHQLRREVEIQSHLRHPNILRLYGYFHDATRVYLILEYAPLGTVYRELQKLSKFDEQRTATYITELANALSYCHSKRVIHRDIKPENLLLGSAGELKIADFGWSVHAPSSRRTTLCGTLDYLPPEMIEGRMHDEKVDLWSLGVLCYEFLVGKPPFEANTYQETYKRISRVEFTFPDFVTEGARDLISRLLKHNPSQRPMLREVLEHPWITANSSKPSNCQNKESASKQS

[1] = system: human tumour cell line SW620; experiment: In vitro cell proliferation assay (BrdU incorporation); assay type: cell-based; conditions: SW-620, SW620 cells, 48 hours with compound, BrdU incorporation over 2 hour labelling period, read-out: 50% inhibition of enzyme activity at a concentration of
Description: (c) In Vitro cell Proliferation Assay
This and other assays can be used to determine the ability of a test compound to inhibit the growth of adherent mammalian cell lines, for example the human tumour cell line SW620 (ATCC CCL-227). This assay determines the ability of at test compound to inhibit the incorporation of the thymidine analogue, 5′-bromo-2′-deoxy-uridine (BrdU) into cellular DNA. SW620 or other adherent cells were typically seeded at 1×10^5 cells per well in L-15 media (GIBCO) plus 5% foetal calf serum, 1% L-glutamine (100 μl /well) in 96 well tissue culture treated 96 well plates (Costar) and allowed to adhere overnight. The following day the cells were dosed with compound (diluted from 10 mM stock in DMSO using L-15 (with 5% FCS, 1% L-glutamine). Untreated control wells and wells containing a compound known to give 100% inhibition of BrdU incorporation were included on each plate. After 48 hours in the presence/absence of test compound the ability of the cells to incorporate BrdU over a 2 hour labelling period was determined using a Boehringer (Roche) Cell Proliferation BrdU EUSA kit (cat. No. 1 647 229) according to manufacturers directions. Briefly, 15 μl of BrdU labelling reagent (diluted 1:100 in media—L-15, 5% FCS, 1% L-glutamine) was added to each well and the plate returned to a humidified (+5% CO2) 37° C. incubator for 2 hours. After 2 hours the labelling reagent was removed by decanting and tapping the plate on a paper towel. FixDenat solution (50 μl per well) was added and the plates incubated at room temperature for 45 mins with shaking. The FixDenat solution was removed by decanting and tapping the inverted plate on a paper towel. The plate was then washed once with phosphate buffered saline (PBS) and 100 μl/well of Anti-BrdU-POD antibody solution (diluted 1:100 in antibody dilution buffer) added. The plate was then incubated at room temperature with shaking for 90 min. […] The optical density of the wells was then determined at 690 nm wavelength using a Titertek Multiscan plate reader. […]

Chain of Aurora-B kinase (Q96GD4 whole entry): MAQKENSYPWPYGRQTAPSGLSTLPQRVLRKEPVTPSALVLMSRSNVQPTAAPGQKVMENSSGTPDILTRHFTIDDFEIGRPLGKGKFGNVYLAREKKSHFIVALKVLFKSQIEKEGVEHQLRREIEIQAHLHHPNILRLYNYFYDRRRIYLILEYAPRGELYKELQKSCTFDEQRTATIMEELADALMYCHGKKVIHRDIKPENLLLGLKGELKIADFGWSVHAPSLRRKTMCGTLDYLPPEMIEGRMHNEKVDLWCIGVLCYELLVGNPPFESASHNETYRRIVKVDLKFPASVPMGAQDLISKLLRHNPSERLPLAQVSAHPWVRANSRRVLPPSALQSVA

| Structure (SMILES) | IC50 (Aurora-B kinase) [nM] | IC50 (SW620 cells) [nM] | IC50 (Aurora-A kinase) [nM] | IC50 [1] [nM] |
| --- | --- | --- | --- | --- |
| COc1cc2c(Nc3cnn(CC(=O)Nc4cccc(F)c4)c3)ncnc2cc1OCCCN1CCC[C@@H]1CO [Compound 27, N-(3-fluorophenyl)-2-{4-[(7-{3-[(2R)-2-(hydroxymethyl)pyrrolidin-1-yl]propoxy}-6-methoxyquinazolin-4-yl)amino]-1H-pyrazol-1-yl}acetamide] | 5 | 7 | 34 | 10 |
| COc1cc2c(Nc3cnn(CC(=O)Nc4cccc(F)c4F)c3)ncnc2cc1OCCCN(CCO)CC(C)C [Compound 60, N-(2,3-difluorophenyl)-2-{4-[(7-{3-[(2-hydroxyethyl)(isobutyl)amino]propoxy}-6-methoxyquinazolin-4-yl)amino]-1H-pyrazol-1-yl}acetamide] | 8 | 3 | 10 | 1 |
| CCN(CCO)CCCOc1ccc2c(Nc3cnn(CC(=O)Nc4cccc(F)c4)c3)ncnc2c1 [Compound 187, 2-{4-[(7-{3-[ethyl(2-hydroxyethyl)amino]propoxy}quinazolin-4-yl)amino]-1H-pyrazol-1-yl}-N-(3-fluorophenyl)acetamide] | 9 | 21 | 500 | 1 |
